Values of other authors, collected in US7473685B2, “Process for preparation of chemically stable, dry-flow, low compact, dust free, soluble granules of phosphoroamidothioates” (United Phosphorus, Ltd., priority 2001, dated 2009).

Tested on: aphids, leaf-miners, lepidopterous, larvae, sawflies and thrips
Conditions: systemic and contact insecticide of moderate persistence

COP(=O)(NC(C)=O)SC (stereo not shown) [Acephate]
residual activity lasting: 10 to 15 days
